Patent US6040434A, “Aldehyde oxidase inhibitors for treatment of aids” (priority 1997, dated 2000)

Columns and labels:
[1] = system: retroviral replication; conditions: cited from earlier work
[2] = system: microsomal cytochrome P450 isozymes and microsomal NADPH-cytochrome P450 reductase; conditions: in words; Eagling (1994); cited from earlier work
[3] = system: S9 fraction of human liver; experiment: AMT formation from AZT by human liver S9 fraction / human liver samples; type: in vitro ADME
Excerpt: (§1) Hamster livers were processed by the same method.
(§2) This reduced the experimental variability and simplified the procedure. […] The method was as follows.
(§3) AMT formation by a human liver S9 fraction was compared with that by a hamster liver S9 fraction, as the hamster has the highest documented level of liver aldehyde oxidase activity (Kitamura, 1984; by Sugihara, 1996).

[4] = molecular target: T1, S9 fraction of human liver (Homo sapiens, UniProt Q06278); experiment: as above; type: in vitro ADME; conditions: human liver samples; conversion of AZT to AMT
T1 construct: Human liver samples stored at -70° C. were partially thawed, homogenized; from tissue; host or cells: human liver, S9 fraction (9000 g supernatant)
T1 sequence (Q06278 1-1338): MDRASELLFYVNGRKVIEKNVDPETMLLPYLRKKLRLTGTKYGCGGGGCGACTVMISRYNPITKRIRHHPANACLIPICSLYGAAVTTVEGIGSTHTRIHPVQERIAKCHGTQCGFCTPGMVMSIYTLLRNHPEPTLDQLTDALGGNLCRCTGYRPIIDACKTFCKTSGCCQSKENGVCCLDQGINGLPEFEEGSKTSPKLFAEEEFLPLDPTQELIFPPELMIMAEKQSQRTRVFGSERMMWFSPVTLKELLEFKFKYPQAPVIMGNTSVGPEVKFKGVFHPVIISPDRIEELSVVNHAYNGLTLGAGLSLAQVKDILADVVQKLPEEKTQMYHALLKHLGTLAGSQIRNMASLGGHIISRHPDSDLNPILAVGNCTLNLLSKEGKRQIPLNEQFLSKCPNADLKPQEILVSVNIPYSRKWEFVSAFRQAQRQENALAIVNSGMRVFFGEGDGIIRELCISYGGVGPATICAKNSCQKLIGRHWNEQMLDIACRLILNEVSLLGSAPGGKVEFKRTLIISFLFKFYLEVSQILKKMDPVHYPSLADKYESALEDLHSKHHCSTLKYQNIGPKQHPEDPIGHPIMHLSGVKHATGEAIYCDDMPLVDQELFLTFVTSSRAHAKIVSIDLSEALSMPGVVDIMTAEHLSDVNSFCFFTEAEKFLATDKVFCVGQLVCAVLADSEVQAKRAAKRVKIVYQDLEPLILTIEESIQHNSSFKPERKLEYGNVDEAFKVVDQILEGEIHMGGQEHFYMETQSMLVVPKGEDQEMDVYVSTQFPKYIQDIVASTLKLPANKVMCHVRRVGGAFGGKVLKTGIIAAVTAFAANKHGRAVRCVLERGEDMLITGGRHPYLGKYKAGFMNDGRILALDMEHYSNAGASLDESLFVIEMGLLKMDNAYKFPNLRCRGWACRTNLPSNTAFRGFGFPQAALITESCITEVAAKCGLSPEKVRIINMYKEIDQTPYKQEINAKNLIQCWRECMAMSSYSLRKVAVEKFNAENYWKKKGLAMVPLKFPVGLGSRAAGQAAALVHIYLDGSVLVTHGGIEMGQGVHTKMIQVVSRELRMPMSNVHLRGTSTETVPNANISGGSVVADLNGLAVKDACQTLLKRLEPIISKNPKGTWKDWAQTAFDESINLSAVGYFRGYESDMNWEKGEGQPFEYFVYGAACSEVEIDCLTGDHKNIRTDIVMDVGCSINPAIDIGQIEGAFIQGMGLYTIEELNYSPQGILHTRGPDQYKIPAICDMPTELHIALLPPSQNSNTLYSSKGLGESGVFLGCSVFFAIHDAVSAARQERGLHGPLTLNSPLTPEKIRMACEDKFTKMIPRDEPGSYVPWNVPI
Excerpt: as §1, §2, §3

[5] = system: bone marrow; conditions: cited from earlier work
[6] = in words; Veal et al., 1995; cited from earlier work

For Cc1cn([C@H]2C[C@H](N=[N+]=[N-])[C@@H](CO)O2)c(=O)[nH]c1=O [AZT, 3'-azido-3'-deoxythymidine], the “inhibition of retroviral replication” value [1] is listed as “potent inhibitor of retroviral replication”, the “conversion of AZT to AMT by human liver microsomes” value [2] is listed as “the conversion was mediated by both microsomal cytochrome P450 isozymes and microsomal NADPH-cytochrome P450 reductase” and the “share of AMT formation due to microsomal enzyme activity” value [3] is listed as “less than 10%”. For the same compound, the “share of AMT formation due to cytosolic aldehyde oxidase (2-OHP-dependent)” value [4] was no less than 90%, the “patients treated with AZT suffering bone marrow toxicity” value ([5]; depending on dosage and disease stage) was “up to 51%” and the “side-effect of bone marrow toxicity” value ([5]; in words) was “bone marrow toxicity, resulting in granulocytopenia and anemia”. For the same compound, the “pathways of metabolism and elimination” value [6] was “The predominant pathway of metabolism is by glucuronide formation and renal excretion”.
